According to patent publication US10669296B2, “LXR agonists and uses thereof” (Rgenix, Inc., priority 2014, dated 2020):
Blank lines part the entries; values can stand above or below the molecule they belong to.

System: ApoE
Assay: ApoE gene expression analysis by qRT-PCR in MeWo cancer cells
Format: cell-based
Settings: 48 h; for Emax at 1 µM / Emax at 10 µM: read-out: ApoE gene expression in relation to GW3965 at 1 μM (100%)
Method: Cancer cells (MeWo) were treated in presence of drug or control (DMSO) at indicated concentrations for 48 h. RNA was extracted from whole cell lysates using the Total RNA Purification Kit (17200, Norgen, Thorold, Canada). 600 ng of total RNA was then reverse transcribed into cDNA using the Verso cDNA Synthesis Kit (AB-1453/B, Fisher Scientific). 6 ng of the resulting cDNA was then mixed with SYBR green PCR Master Mix (4309155, Applied Biosystems) and the appropriate primers. Each reaction was performed in quadruplicate, and mRNA expression was quantified by performing real-time PCR amplification using a StepOne Plus Real-Time PCR System (Applied Biosystems). GAPDH was used as an endogenous control for normalization. EC50 values were calculated using Prism6 software and plotting expression values versus drug concentration. The following primers were used: [table] The results are shown in relation to GW3965 ApoE expression at 1 μM (i.e. 100%).

Structure (SMILES): CS(=O)(=O)NC(=O)Cc1cccc(OCCCN(Cc2cccc(C(F)(F)F)c2Cl)CC(c2ccccc2)c2ccccc2)c1 [Compound 2, 2-{3-[3-({[2-chloro-3-(trifluoromethyl)phenyl]methyl}(2,2-diphenylethyl)amino)propoxy]phenyl}-N-methanesulfonylacetamide]
Emax at 1 µM (Homo sapiens, MeWo, 1 μM): > 40% | Emax at 10 µM (Homo sapiens, MeWo, 10 μM): > 40%

Structure (SMILES): O=C(O)c1cccc(OCCCN(Cc2cccc(C(F)(F)F)c2Cl)CC(c2ccccc2)c2ccccc2)c1 [Compound 3, 3-[3-({[2-chloro-3-(trifluoromethyl)phenyl]methyl}(2,2-diphenylethyl)amino)propoxy]benzoic acid]
Emax at 1 µM (Homo sapiens, MeWo, 1 μM): > 40% | Emax at 10 µM (Homo sapiens, MeWo, 10 μM): < 40%

EC50 (Homo sapiens, MeWo): < 1000 nM
Structure (SMILES): CC(C)(O)c1cccc(OCCCN(Cc2cccc(C(F)(F)F)c2Cl)CC(c2ccccc2)c2ccccc2)c1 [Compound 4, 2-{3-[3-({[2-chloro-3-(trifluoromethyl)phenyl]methyl}(2,2-diphenylethyl)amino)propoxy]phenyl}propan-2-ol]
Emax at 1 µM (Homo sapiens, MeWo, 1 μM): > 40% | Emax at 10 µM (Homo sapiens, MeWo, 10 μM): > 40%

EC50 (Homo sapiens, MeWo): < 300 nM
Structure (SMILES): O=C1Cc2cc(OCCCN(Cc3cccc(C(F)(F)F)c3Cl)CC(c3ccccc3)c3ccccc3)ccc2CO1 [Compound 6, 6-[3-({[2-chloro-3-(trifluoromethyl)phenyl]methyl}(2,2-diphenylethyl)amino)propoxy]-3,4-dihydro-1H-2-benzopyran-3-one]
Emax at 1 µM (Homo sapiens, MeWo, 1 μM): > 80% | Emax at 10 µM (Homo sapiens, MeWo, 10 μM): > 40%

EC50 (Homo sapiens, MeWo): < 1000 nM
Structure (SMILES): CS(=O)(=O)c1cccc(OCCCN(Cc2cccc(C(F)(F)F)c2Cl)CC(c2ccccc2)c2ccccc2)c1 [Compound 7, {[2-chloro-3-(trifluoromethyl)phenyl]methyl}(2,2-diphenylethyl)[3-(3-methanesulfonylphenoxy)propyl]amine]
Emax at 1 µM (Homo sapiens, MeWo, 1 μM): > 80% | Emax at 10 µM (Homo sapiens, MeWo, 10 μM): > 40%

Structure (SMILES): O=C(O)Cc1cccc(OCCCN(Cc2cccc(OC(F)(F)F)c2)CC(c2ccccc2)c2ccccc2)c1 [Compound 24]
Emax at 1 µM (Homo sapiens, MeWo, 1 μM): > 40% | Emax at 10 µM (Homo sapiens, MeWo, 10 μM): > 40%

Structure (SMILES): O=C(O)Cc1cccc(OCCCN(Cc2cccc(OC(F)(F)C(F)F)c2)CC(c2ccccc2)c2ccccc2)c1 [Compound 25, 2-(3-{3[(2,2-diphenylethyl)({[3-(1,1,2,2-tetrafluoroethoxy)phenyl]methyl})amino]propoxy}phenyl)acetic acid]
Emax at 1 µM (Homo sapiens, MeWo, 1 μM): > 40% | Emax at 10 µM (Homo sapiens, MeWo, 10 μM): < 40%

Structure (SMILES): O=C(O)Cc1cccc(OCCCN(Cc2cccc3c2OC(F)(F)O3)CC(c2ccccc2)c2ccccc2)c1 [Compound 26, 2[3-(3-{[(2,2-difluoro-2H-1,3-benzodioxol-4-yl)methyl](2,2-diphenylethyl)amino}propoxy)phenyl]acetic acid]
Emax at 1 µM (Homo sapiens, MeWo, 1 μM): < 40% | Emax at 10 µM (Homo sapiens, MeWo, 10 μM): < 40%

Structure (SMILES): C[C@H](CCO[C@@H]1CCCN(S(C)(=O)=O)C1)N(Cc1cccc(C(F)(F)F)c1Cl)CC(c1ccccc1)c1ccccc1 [Compound 30, {[2-chloro-3-(trifluoromethyl)phenyl]methyl}(2,2-diphenylethyl)[(2R)-4-{[(3R)-1-methanesulfonylpiperidin-3-yl]oxy}butan-2-yl]amine]
Emax at 1 µM (Homo sapiens, MeWo, 1 μM): > 40% | Emax at 10 µM (Homo sapiens, MeWo, 10 μM): > 80%

EC50 (Homo sapiens, MeWo): < 3000 nM
Structure (SMILES): CS(=O)(=O)c1cc(OCCCN(Cc2cccc(C(F)(F)F)c2Cl)CC(c2ccccc2)c2ccccc2)cc(F)c1C(=O)O [Compound 35, 4-[3-({[2-chloro-3-(trifluoromethyl)phenyl]methyl}(2,2-diphenylethyl)amino)propoxy]-2-fluoro-6-methanesulfonylbenzoic acid]
Emax at 1 µM (Homo sapiens, MeWo, 1 μM): < 40% | Emax at 10 µM (Homo sapiens, MeWo, 10 μM): > 40%

EC50 (Homo sapiens, MeWo): < 300 nM
Structure (SMILES): CC(CCN(Cc1cccc(C(F)(F)F)c1Cl)CC(c1ccccc1)c1ccccc1)Oc1cc(F)c(CO)c(S(C)(=O)=O)c1 (stereo not drawn) [Compound 59, (4-{[4-({[2-chloro-3-(trifluoromethyl)phenyl]methyl}(2,2-diphenylethyl)amino)butan-2-yl]oxy}-2-fluoro-6-methanesulfonylphenyl)methanol]
Emax at 1 µM (Homo sapiens, MeWo, 1 μM): > 40% | Emax at 10 µM (Homo sapiens, MeWo, 10 μM): > 40%

EC50 (Homo sapiens, MeWo): < 300 nM
Structure (SMILES): CC(C)(O)c1c(F)cc(OCCCN(Cc2cccc(C(F)(F)F)c2Cl)CC(c2ccccc2)c2ccccc2)cc1S(C)(=O)=O [Compound 60, 2-{4-[3-({[2-chloro-3-(trifluoromethyl)phenyl]methyl}(2,2-diphenylethyl)amino)propoxy]-2-fluoro-6-methanesulfonylphenyl}propan-2-ol]
Emax at 1 µM (Homo sapiens, MeWo, 1 μM): > 40% | Emax at 10 µM (Homo sapiens, MeWo, 10 μM): > 80%

Structure (SMILES): CS(=O)(=O)N1CC[C@H](OCCCN(Cc2cccc(C(F)(F)F)c2Cl)CC(c2ccccc2)c2ccccc2)C1 [Compound 61, {[2-chloro-3-(trifluoromethyl)phenyl]methyl}(2,2-diphenylethyl)(3-{[(3S)-1-methanesulfonylpyrrolidin-3-yl]oxy}propyl)amine]
Emax at 1 µM (Homo sapiens, MeWo, 1 μM): > 40% | Emax at 10 µM (Homo sapiens, MeWo, 10 μM): > 80%

EC50 (Homo sapiens, MeWo): < 1000 nM
Structure (SMILES): CS(=O)(=O)N1CC(OCCCN(Cc2cccc(C(F)(F)F)c2Cl)CC(c2ccccc2)c2ccccc2)C1 [Compound 62, {[2-chloro-3-(trifluoromethyl)phenyl]methyl} (2,2-diphenylethyl){3-[(1-methanesulfonylazetidin-3-yl)oxy]propyl}amine]
Emax at 1 µM (Homo sapiens, MeWo, 1 μM): > 80% | Emax at 10 µM (Homo sapiens, MeWo, 10 μM): > 80%

EC50: < 3000 nM
Structure (SMILES): CS(=O)(=O)N1CCC[C@@H](OCCCN(Cc2cccc(C(F)(F)F)c2Cl)CC(c2ccccc2)c2ccccc2)C1 [Compound 63, {[2-chloro-3-(trifluoromethyl)phenyl]methyl}(2,2-diphenylethyl)(3-{[(3R)-1-methanesulfonylpiperidin-3-yl]oxy}propyl)amine]
ApoE gene expression in relation to GW3965 at 1 μM (100%) (1 μM): +++ (“+++” > 80% ApoE induction) | ApoE gene expression in relation to GW3965 at 1 μM (100%) (10 μM): +++ (“+++” > 80% ApoE induction)

EC50 (Homo sapiens, MeWo): < 1000 nM
Structure (SMILES): COC(=O)c1c(F)cc(OCCCN(Cc2cccc(C(F)(F)F)c2Cl)CC(c2ccccc2)c2ccccc2)cc1S(C)(=O)=O [Compound 64, methyl 4-[3-({[2-chloro-3-(trifluoromethyl)phenyl]methyl}(2,2-diphenylethyl)amino)propoxy]-2-fluoro-6-methanesulfonylbenzoate]
Emax at 1 µM (Homo sapiens, MeWo, 1 μM): > 80% | Emax at 10 µM (Homo sapiens, MeWo, 10 μM): > 80%

EC50 (Homo sapiens, MeWo): < 1000 nM
Structure (SMILES): CS(=O)(=O)c1cc(OCCCN(Cc2cccc(C(F)(F)F)c2Cl)CC(c2ccccc2)c2ccccc2)cc(F)c1C=O [Compound 65, 4-[3-({[2-chloro-3-(trifluoromethyl)phenyl]methyl}(2,2-diphenylethyl)amino)propoxy]-2-fluoro-6-methanesulfonyl-benzaldehyde]
Emax at 1 µM (Homo sapiens, MeWo, 1 μM): > 80% | Emax at 10 µM (Homo sapiens, MeWo, 10 μM): > 80%

EC50: < 3000 nM
Structure (SMILES): CS(=O)(=O)N1CCC[C@H](OCCCN(Cc2cccc(C(F)(F)F)c2Cl)CC(c2ccccc2)c2ccccc2)C1 [Compound 66, {[2-chloro-3-(trifluoromethyl)phenyl]methyl}(2,2-diphenylethyl)(3-{[(3S)-1-methanesulfonylpiperidin-3-yl]oxy}propyl)amine]
ApoE gene expression in relation to GW3965 at 1 μM (100%) (1 μM): +++ (“+++” > 80% ApoE induction) | ApoE gene expression in relation to GW3965 at 1 μM (100%) (10 μM): +++ (“+++” > 80% ApoE induction)

Structure (SMILES): C[C@@H](CCOc1cc(F)c(CO)c(S(C)(=O)=O)c1)N(Cc1cccc(C(F)(F)F)c1Cl)CC(c1ccccc1)c1ccccc1 [Compound 71, {4-[(3S)-3-({[2-chloro-3-(trifluoromethyl)phenyl]methyl}(2,2-diphenylethyl)amino)butoxy]-2-fluoro-6-methanesulfonylphenyl}methanol]
Emax at 1 µM (Homo sapiens, MeWo, 1 μM): < 40%

Structure (SMILES): CS(=O)(=O)c1cc(OCCCN(Cc2cccc(C(F)(F)F)c2F)CC(c2ccccc2)c2ccccc2)cc(F)c1CO [Compound 72, (4-{3-[(2,2-diphenylethyl)({[2-fluoro-3-(trifluoromethyl)phenyl]methyl})amino]propoxy}-2-fluoro-6-methanesulfonylphenyl)methanol]
Emax at 1 µM (Homo sapiens, MeWo, 1 μM): > 80% | Emax at 10 µM (Homo sapiens, MeWo, 10 μM): > 80%

Structure (SMILES): CS(=O)(=O)c1cc(OCCCN(Cc2cccc(C(F)(F)F)c2)CC(c2ccccc2)c2ccccc2)cc(F)c1CO [Compound 73, (4-{3-[(2,2-diphenylethyl)({[3-(trifluoromethyl)phenyl]methyl})amino]propoxy}-2-fluoro-6-methanesulfonylphenyl)methanol]
Emax at 1 µM (Homo sapiens, MeWo, 1 μM): > 80% | Emax at 10 µM (Homo sapiens, MeWo, 10 μM): > 80%

Structure (SMILES): CS(=O)(=O)c1cc(OCCCN(Cc2cccc(OC(F)(F)F)c2)CC(c2ccccc2)c2ccccc2)cc(F)c1CO [Compound 74, (4-{3-[(2,2-diphenylethyl)({[3-(trifluoromethoxy)phenyl]methyl})amino]propoxy}-2-fluoro-6-methanesulfonylphenyl)methanol]
Emax at 1 µM (Homo sapiens, MeWo, 1 μM): > 40% | Emax at 10 µM (Homo sapiens, MeWo, 10 μM): > 40%

Structure (SMILES): CS(=O)(=O)c1cc(OCCCN(Cc2ccc(F)c(C(F)(F)F)c2)CC(c2ccccc2)c2ccccc2)cc(F)c1CO [Compound 75, (4-{3-[(2,2-diphenylethyl)({[4-fluoro-3-(trifluoromethyl)phenyl]methyl})amino]propoxy}-2-fluoro-6-methanesulfonylphenyl)methanol]
Emax at 1 µM (Homo sapiens, MeWo, 1 μM): > 40% | Emax at 10 µM (Homo sapiens, MeWo, 10 μM): > 80%

Structure (SMILES): CS(=O)(=O)c1cc(OCCCN(Cc2cccc(C(F)(F)F)c2Cl)CC(c2ccccc2)C2CCCCC2)cc(F)c1CO (stereo not drawn) [Compound 78, {4-[3-({[2-chloro-3-(trifluoromethyl)phenyl]methyl}(2-cyclohexyl-2-phenylethyl)amino)propoxy]-2-fluoro-6-methanesulfonylphenyl}methanol]
Emax at 1 µM (Homo sapiens, MeWo, 1 μM): > 40%
